From ChEMBL document CHEMBL5727805, “Bicyclic quinazolinone derivatives” (2020) come the findings set out here.

pIC50: −log10 of the molar value.

The target of the assay is Autotaxin (Homo sapiens, UniProt Q13822). The experiment in a line: Human ATX Enzyme Inhibition Assay: ATX inhibition was measured by a fluorescence quenching assay using a specifically labeled substrate analogue (MR121 substrate). To obtain this MR121 substrate, BOC and TBS protected 6-amino-hexanoic acid (R)-3-({2-[3-(2-{2-[2-(2-amino-ethoxy)-ethoxy]-ethoxy}-ethoxy)-propionylamino]-ethoxy}-hydroxy-phosphoryloxy)-2-hydroxy-propyl ester (Ferguson et al., Org. Lett. 2006, 8, 2023) was labeled with MR121 fluorophore [CAS RN 185308-24-1], 1-(3-carboxypropyl)-11-ethyl-1,2,3,4,8,9,10,11-octahydro-dipyrido[3,2-b:2′,3′-i]phenoxazin-13-ium) on the free amine of the ethanolamine side and then, after deprotection, subsequently with tryptophan on the side of the aminohexanoic acid.Assay working solutions were made as follows:Assay buffer (50 mM Tris-HCl, 140 mM NaCl, 5 mM KCl, 1 mM CaCl2, 1 mM MgCl2, 0.01% Triton-X-100, pH 8.0;ATX solution: ATX (human His-tagged) stock solution (1.08 mg/mL in 20 mM bicine, pH 8.5, 0.15 M NaCl, 10% glycerol, 0.3% CHAPS, 0.02% NaN3), diluted to 1.4-2.5× final concentration in assay buffer;MR121 substrate solution: MR121 substrate stock solution (800 μM MR121 substrate in DMSO), diluted to 2-5× final concentration in assay buffer.Test compounds (10 mM stock in DMSO, 8 μL) were obtained in 384 well sample plates (Corning Costar #3655) and diluted with 8 μL DMSO. […].

As usually defined, the pIC50 is the negative decadic logarithm of the IC50, by convention in mol/L. Lower therefore signals a large IC50.

Consider `CC(=O)N1CCCN(c2ccc3ncn(CC(=O)NCc4ccc(Cl)c(Cl)c4)c(=O)c3c2)CC1`, for which the pIC50 was 7.46.
